Measurements as given in US8921595B2, “Protein Arginine Deiminase inhibitors as novel therapeutics for rheumatoid arthritis and cancer” (University of South Carolina, priority 2009, dated 2014).

Key:
[1] = tested on: HL-60 cells; assay: Combination with doxorubicin, HL-60 cell viability; format: cell-based, human; details: for effects of doxorubicin in combination: HL-60 cells, combination with doxorubicin; for viability of cancer cells in combination with doxorubicin: in conjunction with doxorubicin
Description: Although o-F- and o-Cl-amidine show some efficacy for killing cancer derived cells, the overall effects are modest. In light of such results, these inhibitors were tested in a combination with doxorubicin, a known chemotherapeutic that is used for the treatment of numerous cancers, often as part of a combination therapy. In accordance with the present disclosure, the additive effects of doxorubicin was tested with varying concentrations of both o-F- and o-Cl-amidine on HL-60 cell viability.
HL-60 and MCF-7 cells were grown to confluence (1×10^6 cells/mL) in the appropriate media. 50 μL of the MCF-7 cells were plated into each well of a 96 well plate with 40 μL of DMEM. Cells were allowed to adhere to the plate for 15 h at 37° C. and 5% CO2. For the HL-60 cells, 90 μL of the cells were added to each well of a 96 well plate. o-F-amidine, o-Cl-amidine, doxorubicin, or ATRA (10 μL, 100 nM to 100 μM) were added to the plates and allowed to incubate with the cells for 24 h. Cell viability was determined using the CellTiter 96 Non-radioactive Cell Proliferation Assay (Promega). Cell viability was quantified as the percentage of control absorbance. Each condition was performed in triplicate. The use of 1% triton served as a 100% killing control. When possible, EC50 values were determined by fitting the dose response data to equation 2 using GraFit (version 5.0.11)^33, Fractional Activity=1/(1+([1]/EC50) (eq 2) where [I] is the concentration of inhibitor (e.g., doxorubicin) and EC50 is the concentration of inhibitor that yields half-maximal cell survival. Western Blotting.

[2] = tested on: HL-60 cells; assay: Cytotoxicity / cell viability (CellTiter 96); format: cell-based, human; details: 24 h
Description: To further evaluate the […] effects of these compounds, their ability to inhibit the growth of HL60 cells, a leukemic cell line, was characterized. […] Such finding prompted further investigation into this phenomenon and led to the discovery that for the HL-60 cell line, the cells that remained viable were actually being differentiated into non-cancerous granulocytes. Evidence of this differentiation includes the increased expression of PAD4 (FIG. 6).
HL-60 human promyelocytic leukemia cells were obtained from the ATCC (Manassas, Va.). The cells were cultured in RPMI 1640 media supplemented with 10% FBS and 1% Pencillin-Streptomycin, in a 5% CO2 incubator at 37° C. MCF-7 cells were cultured in DMEM media supplemented with 10% FBS and 1% Penicillin-Streptomycin, in a 5% CO2 incubator at 37° C.
HL-60 and MCF-7 cells were grown to confluence (1×10^6 cells/mL) in the appropriate media. […] Cell viability was determined using the CellTiter 96 Non-radioactive Cell Proliferation Assay (Promega). Cell viability was quantified as the percentage of control absorbance. […] When possible, EC50 values were determined by fitting the dose response data to equation 2 using GraFit (version 5.0.11)^33, Fractional Activity=1/(1+([1]/EC50) (eq 2) where [I] is the concentration of inhibitor (e.g., doxorubicin) and EC50 is the concentration of inhibitor that yields half-maximal cell survival. Western Blotting.

SMILES | effects of doxorubicin in combination [1] | viability of cancer cells in combination with doxorubicin [1] | cell viability in HL-60 cells [2]
N=C(CCl)NCCC[C@H](NC(=O)c1ccccc1C(=O)O)C(N)=O [o-Cl-amidine, N-α-(2-carboxyl)benzoyl-N^5-(2-chloro-1-iminoethyl)-L-ornithine amide] | potentiated | reduced to levels that are undetectable above the background signal | reduce cell viability
N=C(CF)NCCC[C@H](NC(=O)c1ccccc1C(=O)O)C(N)=O [o-F-amidine, N-α-(2-carboxyl)benzoyl-N^5-(2-fluoro-1-iminoethyl)-L-ornithine amide] | potentiated | reduced to levels that are undetectable above the background signal | reduce cell viability
